Laboratory results from patent publication US12264134B2 (Merck Sharp & Dohme LLC, priority 2018, dated 2025).

Biological target: IDO1 (Homo sapiens, UniProt P14902)
Assay: IDO1 Cellular Assay in HeLa Cells Stimulated with IFNγ
Format: cell-based
Settings: read-out: HeLa Cell Potency, IC50

Sequence of IDO1 (P14902 whole entry): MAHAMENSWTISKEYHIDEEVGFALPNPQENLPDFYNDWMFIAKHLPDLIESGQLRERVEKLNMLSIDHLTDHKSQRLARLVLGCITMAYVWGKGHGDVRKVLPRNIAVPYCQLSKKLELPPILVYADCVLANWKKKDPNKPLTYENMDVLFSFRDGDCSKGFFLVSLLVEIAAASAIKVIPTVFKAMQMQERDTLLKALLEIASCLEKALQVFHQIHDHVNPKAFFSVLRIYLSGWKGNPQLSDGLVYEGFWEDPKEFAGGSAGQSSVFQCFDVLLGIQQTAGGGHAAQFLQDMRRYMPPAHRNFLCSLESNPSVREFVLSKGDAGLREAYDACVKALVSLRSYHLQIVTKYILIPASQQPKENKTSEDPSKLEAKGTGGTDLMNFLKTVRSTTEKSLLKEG

Row | Compound | IC50 [nM]
1 | Cc1cccc(N2CCN(C(=O)Cn3nc(C(=O)N4CC5CC(C4)C5O)c4c3CCC4)CC2)c1C (centres unmarked) [Example 306, 1-[4-(2,3-dimethylphenyl)piperazin-1-yl]-2-[3-(6-hydroxy-3-azabicyclo[3.1.1]heptane-3-carbonyl)-5,6-dihydrocyclopenta[c]pyrazol-1(4H)-yl]ethan-1-one] | 55.4
2 | Cc1cccc(N2CCN(C(=O)Cn3nc(C(=O)N4CC[C@H](O)[C@H](F)C4)c4c3C[C@@H]3C[C@H]43)CC2)c1C [Example 307, 1-[4-(2,3-dimethylphenyl)piperazin-1-yl]-2-{(3bS,4aS)-3-[(3R,4S)-3-fluoro-4-hydroxypiperidine-1-carbonyl]-3b,4,4a,5-tetrahydro-1H-cyclopropa[3,4]cyclopenta[1,2-c]pyrazol-1-yl}ethan-1-one] | 71.4
3 | Cc1cccc(N2CCN(C(=O)Cn3nc(C(=O)N4C[C@@H](O)[C@@H](O)C4)c4c3CCC4)CC2)c1C [Example 308, 2-{3-[(3R,4S)-3,4-dihydroxypyrrolidine-1-carbonyl]-5,6-dihydrocyclopenta[c]pyrazol-1(4H)-yl}-1-[4-(2,3-dimethylphenyl)piperazin-1-yl]ethan-1-one] | 400
4 | Cc1cccc(N2CCN(C(=O)Cn3nc(C(=O)N4C[C@H](O)[C@@H](O)C4)c4c3CCC4)CC2)c1C [Example 309, 2-{3-[(3S,4S)-3,4-dihydroxypyrrolidine-1-carbonyl]-5,6-dihydrocyclopenta[c]pyrazol-1(4H)-yl}-1-[4-(2,3-dimethylphenyl)piperazin-1-yl]ethan-1-one] | 410
5 | Cc1cccc(N2CCN(C(=O)Cn3nc(C(=O)N4C[C@@H](C)O[C@@H](C)C4)c4c3CC3CC43)CC2)c1C (stereo partly drawn) [Example 310, 2-{3-[(2R,6S)-2,6-dimethylmorpholine-4-carbonyl]-3b-4,4a,5-tetrahydro-1H-cyclopropa[3,4]cyclopenta[1,2-c]pyrazol-1-yl}-1-[4-(2,3-dimethylphenyl)piperazin-1-yl]ethan-1-one] | 1.86
6 | Cc1cccc(N2CCN(C(=O)Cn3nc(C(=O)N4C[C@@H](C)O[C@@H](C)C4)c4c3C3CC3C4)CC2)c1C (stereo partly drawn) [Example 311, 2-{3-[(2R,6S)-2,6-dimethylmorpholine-4-carbonyl]-4,4a,5,5a-tetrahydro-1H-cyclopropa[4,5]cyclopenta[1,2-c]pyrazol-1-yl}-1-[4-(2,3-dimethylphenyl)piperazin-1-yl]ethan-1-one] | 4.39
7 | Cc1c(Cl)cccc1N1CCN(C(=O)Cn2nc(C(=O)N3CCC(OCCO)CC3)c3c2C[C@H]2C[C@@H]32)C2(CC2)C1 [Example 312, 1-(7-(3-chloro-2-methylphenyl)-4,7-diazaspiro[2.5]octan-4-yl)-2-((3bR,4aR)-3-(4-(2-hydroxyethoxy)piperidine-1-carbonyl)-3b,4,4a,5-tetrahydro-1H-cyclopropa[3,4]cyclopenta[1,2-c]pyrazol-1-yl)ethan-1-one] | 1.74
8 | Cc1c(Cl)cccc1N1CCN(C(=O)Cn2nc(C(=O)N3CCC(NCCO)CC3)c3c2C[C@H]2C[C@@H]32)C2(CC2)C1 [Example 313, 1-[7-(3-chloro-2-methylphenyl)-4,7-diazaspiro[2.5]octan-4-yl]-2-[(3bR,4aR)-3-{4-[(2-hydroxyethyl)amino]piperidine-1-carbonyl}-3b,4,4a,5-tetrahydro-1H-cyclopropa[3,4]cyclopenta[1,2-c]pyrazol-1-yl]ethan-1-one] | 67.5
9 | Cc1c(Cl)cccc1N1CCN(C(=O)Cn2nc(C(=O)N3CCN(CCO)CC3)c3c2C[C@H]2C[C@@H]32)C2(CC2)C1 [Example 316, 1-[7-(3-chloro-2-methylphenyl)-4,7-diazaspiro[2.5]octan-4-yl]-2-{(3bR,4aR)-3-[4-(2-hydroxyethyl)piperazine-1-carbonyl]-3b,4,4a,5-tetrahydro-1H-cyclopropa[3,4]cyclopenta[1,2-c]pyrazol-1-yl}ethan-1-one] | 2.26
10 | Cc1c(F)ccc(N2CCN(C(=O)Cn3nc(C(=O)N4CC[C@@H](O)[C@H](F)C4)c4c3C[C@H]3C[C@@H]43)C3(CC3)C2)c1C [Example 318, 1-[7-(4-fluoro-2,3-dimethylphenyl)-4,7-diazaspiro[2.5]octan-4-yl]-2-{(3bR,4aR)-3-[(3R,4R)-3-fluoro-4-hydroxypiperidine-1-carbonyl]-3b,4,4a,5-tetrahydro-1H-cyclopropa[3,4]cyclopenta[1,2-c]pyrazol-1-yl}ethan-1-one] | 1.41
11 | Cc1c(N2CCN(C(=O)Cn3nc(C(=O)N4CCC(O)(CF)CC4)c4c3C[C@H]3C[C@@H]43)CC2)cccc1C(F)(F)F [Example 336, 2-((3bR,4aR)-3-(4-(fluoromethyl)-4-hydroxypiperidine-1-carbonyl)-3b,4,4a,5-tetrahydro-1H-cyclopropa[3,4]cyclopenta[1,2-c]pyrazol-1-yl)-1-(4-(2-methyl-3-(trifluoromethyl)phenyl)piperazin-1-yl)ethanone] | 0.78
12 | Cc1c(N2CCN(C(=O)Cn3nc(C(=O)N4CCN(C(=O)CO)CC4)c4c3C[C@H]3C[C@@H]43)CC2)cccc1C(F)(F)F [Example 337, 2-hydroxy-1-(4-((3bR,4aR)-1-(2-(4-(2-methyl-3-(trifluoromethyl)phenyl)piperazin-1-yl)-2-oxoethyl)-3b,4,4a,5-tetrahydro-1H-cyclopropa [3,4]cyclopenta[1,2-c]pyrazole-3-carbonyl)piperazin-1-yl)ethanone] | 2.85
13 | CC(=O)NC1CCN(C(=O)c2nn(CC(=O)N3CCN(c4cccc(C(F)(F)F)c4C)CC3)c3c2[C@@H]2C[C@@H]2C3)CC1 [Example 340, N-(1-((3bR,4aR)-1-(2-(4-(2-methyl-3-(trifluoromethyl)phenyl)piperazin-1-yl)-2-oxoethyl)-3b,4,4a,5-tetrahydro-1H-cyclopropa[3,4]cyclopenta[1,2-c]pyrazole-3-carbonyl)piperidin-4-yl)acetamide] | 2.46
14 | Cc1c(N2CCN(C(=O)Cn3nc(C(=O)N4CCC(OCCO)CC4)c4c3C[C@H]3C[C@@H]43)CC2)cccc1C(F)(F)F [Example 341, 2-((3bR,4aR)-3-(4-(2-hydroxyethoxy)piperidine-1-carbonyl)-3b,4,4a,5-tetrahydro-1H-cyclopropa[3,4]cyclopenta[1,2-c]pyrazol-1-yl)-1-(4-(2-methyl-3-(trifluoromethyl)phenyl)piperazin-1-yl)ethanone] | 1.64
15 | Cc1c(N2CCN(C(=O)Cn3nc(C(=O)N4CCO[C@H](CO)C4)c4c3C[C@H]3C[C@@H]43)CC2)cccc1C(F)(F)F [Example 342, 2-((3bR,4aR)-3-((S)-2-(hydroxymethyl)morpholine-4-carbonyl)-3b,4,4a,5-tetrahydro-1H-cyclopropa[3,4]cyclopenta[1,2-c]pyrazol-1-yl)-1-(4-(2-methyl-3-(trifluoromethyl)phenyl)piperazin-1-yl)ethanone] | 2.16
16 | Cc1c(N2CCN(C(=O)Cn3nc(C(=O)N4CCO[C@@H](CO)C4)c4c3C[C@H]3C[C@@H]43)CC2)cccc1C(F)(F)F [Example 343, 2-((3bR,4aR)-3-((R)-2-(hydroxymethyl)morpholine-4-carbonyl)-3b,4,4a,5-tetrahydro-1H-cyclopropa [3,4]cyclopenta[1,2-c]pyrazol-1-yl)-1-(4-(2-methyl-3-(trifluoromethyl)phenyl)piperazin-1-yl)ethanone] | 1.91
17 | Cc1c(C(F)F)cccc1N1CCN(C(=O)Cn2nc(C(=O)N3CCN(C(=O)CO)CC3)c3c2C[C@H]2C[C@@H]32)CC1 [Example 344, 1-(4-(3-(difluoromethyl)-2-methylphenyl)piperazin-1-yl)-2-((3bR,4aR)-3-(4-(2-hydroxyacetyl)piperazine-1-carbonyl)-3b,4,4a,5-tetrahydro-1H-cyclopropa[3,4]cyclopenta[1,2-c]pyrazol-1-yl)ethanone] | 6.52
18 | Cc1c(C(F)F)cccc1N1CCN(C(=O)Cn2nc(C(=O)N3CCC(OCCO)CC3)c3c2C[C@H]2C[C@@H]32)CC1 [Example 345, 1-(4-(3-(difluoromethyl)-2-methylphenyl)piperazin-1-yl)-2-((3bR,4aR)-3-(4-(2-hydroxyethoxy)piperidine-1-carbonyl)-3b,4,4a,5-tetrahydro-1H-cyclopropa[3,4]cyclopenta[1,2-c]pyrazol-1-yl)ethanone] | 1.88
19 | Cc1c(C(F)F)cccc1N1CCN(C(=O)Cn2nc(C(=O)N3CCC(O)CC3)c3c2C[C@H]2C[C@@H]32)CC1 [Example 346, 1-(4-(3-(difluoromethyl)-2-methylphenyl)piperazin-1-yl)-2-((3bR,4aR)-3-(4-hydroxypiperidine-1-carbonyl)-3b,4,4a,5-tetahydro-1H-cyclopropa[3,4]cyclopenta[1,2-c]pyrazol-1-yl)ethanone] | 0.86
20 | Cc1c(C(F)F)cccc1N1CCN(C(=O)Cn2nc(C(=O)N3CC[C@@H](O)[C@@H](F)C3)c3c2C[C@H]2C[C@@H]32)CC1 [Example 347, 1-(4-(3-(difluoromethyl)-2-methylphenyl)piperazin-1-yl)-2-((3bR,4aR)-3-((3S,4R)-3-fluoro-4-hydroxypiperidine-1-carbonyl)-3b,4,4a,5-tetrahydro-1H-cyclopropa[3,4]cyclopenta[1,2-c]pyrazol-1-yl)ethanone] | 2.73
21 | Cc1c(C(F)F)cccc1N1CCN(C(=O)Cn2nc(C(=O)N3CC[C@H](O)[C@H](F)C3)c3c2C[C@H]2C[C@@H]32)CC1 [Example 348, 1-(4-(3-(difluoromethyl)-2-methylphenyl)piperazin-1-yl)-2-((3bR,4aR)-3-((3R,4S)-3-fluoro-4-hydroxypiperidine-1-carbonyl)-3b,4,4a,5-tetrahydro-1H-cyclopropa[3,4]cyclopenta[1,2-c]pyrazol-1-yl)ethanone] | 1.38
22 | Cc1c(C(F)F)cccc1N1CCN(C(=O)Cn2nc(C(=O)N3CCO[C@H](CO)C3)c3c2C[C@H]2C[C@@H]32)CC1 [Example 349, 1-(4-(3-(difluoromethyl)-2-methylphenyl)piperazin-1-yl)-2-((3bR,4aR)-3-((S)-2-(hydroxymethyl)morpholine-4-carbonyl)-3b,4,4a,5-tetrahydro-1H-cyclopropa[3,4]cyclopenta[1,2-c]pyrazol-1-yl)ethanone] | 4.46
23 | Cc1c(C(F)F)cccc1N1CCN(C(=O)Cn2nc(C(=O)N3CCO[C@@H](CO)C3)c3c2C[C@H]2C[C@@H]32)CC1 [Example 350, 1-(4-(3-(difluoromethyl)-2-methylphenyl)piperazin-1-yl)-2-((3bR,4aR)-3-((R)-2-(hydroxymethyl)morpholine-4-carbonyl)-3b,4,4a,5-tetrahydro-1H-cyclopropa[3,4]cyclopenta[1,2-c]pyrazol-1-yl)ethanone] | 5.66
